US20180194762A1 (Pharmacyclics LLC, priority 2017, published 2018)
Like-named read-outs stand apart in the source and are kept apart here.

Experiments:
Assay type in all cases: biochemical
TEC = biological target: T1, TEC (Homo sapiens, UniProt P42680); test: Inhibition of a panel of kinases (in vitro HotSpot kinase assay, 33P-ATP, 1 μM ATP); settings: for IC50: HotSpot kinase assay, 1 μM ATP; for TEC/Btk: ratio of TEC IC50 to Btk IC50 (selectivity)
T1 sequence (P42680 1-631): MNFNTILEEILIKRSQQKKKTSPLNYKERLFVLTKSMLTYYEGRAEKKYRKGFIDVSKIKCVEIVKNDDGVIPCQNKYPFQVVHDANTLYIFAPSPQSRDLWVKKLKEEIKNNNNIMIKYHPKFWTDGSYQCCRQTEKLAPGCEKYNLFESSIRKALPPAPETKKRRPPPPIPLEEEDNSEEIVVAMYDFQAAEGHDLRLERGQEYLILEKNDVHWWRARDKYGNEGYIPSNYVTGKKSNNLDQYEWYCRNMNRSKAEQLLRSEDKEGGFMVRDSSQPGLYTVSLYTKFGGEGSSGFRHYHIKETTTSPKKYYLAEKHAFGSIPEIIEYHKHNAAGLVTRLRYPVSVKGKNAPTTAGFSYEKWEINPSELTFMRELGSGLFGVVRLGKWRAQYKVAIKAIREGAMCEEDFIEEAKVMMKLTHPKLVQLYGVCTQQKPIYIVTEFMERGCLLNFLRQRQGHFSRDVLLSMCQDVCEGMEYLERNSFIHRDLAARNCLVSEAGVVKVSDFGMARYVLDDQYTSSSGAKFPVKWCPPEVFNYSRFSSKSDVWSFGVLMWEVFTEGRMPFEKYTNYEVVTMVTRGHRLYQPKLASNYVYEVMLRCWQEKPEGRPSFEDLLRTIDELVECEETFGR
Procedure, shortened: (§1)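 At 1 μM ATP spiked with 33P-ATP, substrate phosphorylation by the purified enzymes gives the extent of inhibition.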

panel of kinases = biological target: T2, panel of kinases (Homo sapiens, UniProt P51813); test: Inhibition of a panel of kinases (in vitro HotSpot kinase assay, 33P-ATP, 1 μM ATP), other kinases; settings: BMX wild-type, read-out: BMX-WT IC50
T2 sequence (P51813 1-675): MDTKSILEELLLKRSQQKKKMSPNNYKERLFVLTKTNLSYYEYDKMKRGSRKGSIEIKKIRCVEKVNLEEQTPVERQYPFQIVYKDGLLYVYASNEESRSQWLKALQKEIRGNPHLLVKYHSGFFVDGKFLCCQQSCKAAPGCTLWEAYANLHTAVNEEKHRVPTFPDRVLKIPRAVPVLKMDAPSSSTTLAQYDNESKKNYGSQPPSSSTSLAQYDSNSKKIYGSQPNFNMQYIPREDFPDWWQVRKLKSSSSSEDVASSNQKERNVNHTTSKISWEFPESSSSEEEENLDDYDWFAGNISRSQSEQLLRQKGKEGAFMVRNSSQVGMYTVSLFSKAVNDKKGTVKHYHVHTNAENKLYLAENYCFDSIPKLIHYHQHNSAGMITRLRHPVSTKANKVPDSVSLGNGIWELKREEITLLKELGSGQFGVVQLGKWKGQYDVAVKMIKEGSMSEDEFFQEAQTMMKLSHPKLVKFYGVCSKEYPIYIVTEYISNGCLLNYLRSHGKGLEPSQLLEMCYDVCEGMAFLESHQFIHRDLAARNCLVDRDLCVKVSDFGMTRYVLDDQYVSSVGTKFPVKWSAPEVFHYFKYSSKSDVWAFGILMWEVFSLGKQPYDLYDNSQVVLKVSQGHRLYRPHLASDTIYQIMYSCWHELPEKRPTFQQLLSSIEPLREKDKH
Procedure, shortened: as §1

Btk = biological target: T3, Btk (Homo sapiens, UniProt Q06187); test: Btk in vitro inhibitory activity (one of Method A TR-FRET, Method B electrophoretic mobility shift, Method C radiometric filter binding)
T3 construct: purified from insect cells as a full-length construct containing a N-terminal 6X-His tag; His6 (N); made in house; host or cells: insect cells (Method C)
T3 sequence (Q06187 whole entry): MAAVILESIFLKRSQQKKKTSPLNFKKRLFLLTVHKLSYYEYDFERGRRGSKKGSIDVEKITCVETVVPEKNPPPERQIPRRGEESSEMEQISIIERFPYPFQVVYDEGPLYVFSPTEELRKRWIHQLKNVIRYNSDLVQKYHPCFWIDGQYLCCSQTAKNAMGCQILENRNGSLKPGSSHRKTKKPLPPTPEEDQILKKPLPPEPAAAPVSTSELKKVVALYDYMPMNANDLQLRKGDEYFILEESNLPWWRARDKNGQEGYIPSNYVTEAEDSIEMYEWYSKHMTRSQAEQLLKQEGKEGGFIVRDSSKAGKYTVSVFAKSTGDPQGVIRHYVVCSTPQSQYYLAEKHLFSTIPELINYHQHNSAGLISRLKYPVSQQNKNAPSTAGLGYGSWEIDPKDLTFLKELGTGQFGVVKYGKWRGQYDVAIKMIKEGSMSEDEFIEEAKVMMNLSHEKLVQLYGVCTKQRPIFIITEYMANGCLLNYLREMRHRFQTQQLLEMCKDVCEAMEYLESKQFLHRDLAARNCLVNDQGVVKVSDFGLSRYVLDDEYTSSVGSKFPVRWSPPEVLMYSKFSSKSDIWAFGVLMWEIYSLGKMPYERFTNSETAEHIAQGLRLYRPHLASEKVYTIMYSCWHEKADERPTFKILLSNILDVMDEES
Procedure, shortened: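 Three alternative formats were used. A radiometric filter-binding read used 8 nM full-length His-BTK with 0.2 mg/mL poly(Glu-Tyr) 4:1 (C); microfluidic separation of 1 μM FAM-peptide by 1 nM BTK gave IC50 from 12-point curves (B); TR-FRET at Km ATP, 0.5 nM Btk, gave Ki(app)-derived IC50 (A).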

[1] = wild-type Btk, read-out: Btk-WT IC50
[2] = method is one of A, B or C, not stated which, read-out: IC50 values against Btk

Compound	IC50 (TEC)	TEC/Btk (TEC)	IC50 (panel of kinases)	IC50 (Btk; [1])	IC50 (Btk; [2])
CN(C)C(=O)N1CC[C@@H](Nc2n[nH]c3nccc(-c4ccc(CNC(=O)c5cc(C(C)(C)C)on5)c(F)c4)c23)C1 [Example 115, 5-tert-butyl-N-{[4-(3-{[(3R)-1-(dimethylcarbamoyl)pyrrolidin-3-yl]amino}-1H-pyrazolo[3,4-b]pyridin-4-yl)-2-fluorophenyl]methyl}-1,2-oxazole-3-carboxamide]	6320 nM	246	6450 nM	25.7 nM	–
CNC1CCN(c2n[nH]c3nccc(-c4ccc(CN(C)C(=O)c5nc(C(C)(C)C)no5)c(F)c4)c23)C1 (centres unmarked) [Example 337, 3-tert-butyl-N-[(2-fluoro-4-{3-[3-(methylamino)pyrrolidin-1-yl]-1H-pyrazolo[3,4-b]pyridin-4-yl}phenyl)methyl]-N-methyl-1,2,4-oxadiazole-5-carboxamide]	8030 nM	–	5200 nM	2.35 nM	–
CC(C)(C)c1ccc(C(=O)NCc2ccc(-c3ccnc4[nH]nc(N5CC[C@@H](N)C5)c34)cc2F)cc1 [Example 100, N-[(4-{3-[(3R)-3-aminopyrrolidin-1-yl]-1H-pyrazolo[3,4-b]pyridin-4-yl}-2-fluorophenyl)methyl]-4-tert-butylbenzamide]	2970 nM	215	1890 nM	13.8 nM	–
C=CC(=O)N1CC(Nc2n[nH]c3nccc(-c4ccc(CNC(=O)c5noc(C(C)(C)C)n5)c(F)c4)c23)C1 [Example 107, 5-tert-butyl-N-{[2-fluoro-4-(3-{[1-(prop-2-enoyl)azetidin-3-yl]amino}-1H-pyrazolo[3,4-b]pyridin-4-yl)phenyl]methyl}-1,2,4-oxadiazole-3-carboxamide]	> 10000 nM	>100	> 10000 nM	528 nM	–
CC(=O)N1CC[C@H](Nc2n[nH]c3nccc(-c4ccc(CNC(=O)c5nc(C(C)(C)C)no5)c(F)c4)c23)C1 [Example 164, N-{[4-(3-{[(3S)-1-acetylpyrrolidin-3-yl]amino}-1H-pyrazolo[3,4-b]pyridin-4-yl)-2-fluorophenyl]methyl}-3-tert-butyl-1,2,4-oxadiazole-5-carboxamide]	8070 nM	714	8340 nM	11.3 nM	–
CN(C)C(=O)N1CC[C@H](Nc2n[nH]c3nccc(-c4ccc(CNC(=O)c5ccc(C(C)(C)C)cc5)c(F)c4)c23)C1 [Example 114, (3S)-3-{[4-(4-{[(4-tert-butylphenyl)formamido]methyl}-3-fluorophenyl)-1H-pyrazolo[3,4-b]pyridin-3-yl]amino}-N,N-dimethylpyrrolidine-1-carboxamide]	4100 nM	44	2110 nM	93.3 nM	–
CC(=O)N1CC[C@H](Oc2n[nH]c3nccc(-c4ccc(CNC(=O)c5nc(C(C)(C)C)no5)c(F)c4)c23)C1 [Example 284, (S)-N-[(4-{3-[(1-acetylpyrrolidin-3-yl)oxy]-1H-pyrazolo[3,4-b]pyridin-4-yl}-2-fluorophenyl)methyl]-3-tert-butyl-1,2,4-oxadiazole-5-carboxamide]	2250 nM	–	2920 nM	3.19 nM	–

Stronger by IC50 (TEC), values ahead:

IC50 (TEC)	TEC/Btk (TEC)	IC50 (panel of kinases)	IC50 (Btk; [1])	IC50 (Btk; [2])	Compound
1370 nM	926	2110 nM	1.48 nM	–	COC(=O)N1C[C@H](Nc2n[nH]c3nccc(-c4ccc(CNC(=O)c5noc(C(C)(C)C)n5)c(F)c4)c23)CC[C@@H]1C [Example 226, methyl (2S,5R)-5-{[4-(4-{[(5-tert-butyl-1,2,4-oxadiazole-3-carbonyl)amino]methyl}-3-fluorophenyl)-1H-pyrazolo[3,4-b]pyridin-3-yl]amino}-2-methylpiperidine-1-carboxylate]
394 nM	51	170 nM	7.71 nM	< 10 nM	C=CC(=O)N1CC[C@@H](Nc2n[nH]c3nccc(-c4ccc(CNC(=O)c5cc6c(n5C)CC(C)(C)C6)c(F)c4)c23)C1 [Example 158, N-{[2-fluoro-4-(3-{[(3R)-1-(prop-2-enoyl)pyrrolidin-3-yl]amino}-1H-pyrazolo[3,4-b]pyridin-4-yl)phenyl]methyl}-1,5,5-trimethyl-1H,4H,5H,6H-cyclopenta[b]pyrrole-2-carboxamide]
121 nM	337	137 nM	0.359 nM	< 10 nM	C[C@H]1CC[C@@H](Nc2n[nH]c3nccc(-c4ccc(CNC(=O)c5noc(C(C)(C)C)n5)c(F)c4)c23)CN1C(=O)N(C)C [Example 67, (2S,5R)-5-{[4-(4-{[(5-tert-butyl-1,2,4-oxadiazol-3-yl)formamido]methyl}-3-fluorophenyl)-1H-pyrazolo[3,4-b]pyridin-3-yl]amino}-N,N,2-trimethylpiperidine-1-carboxamide]
1560 nM	834	897 nM	1.87 nM	< 10 nM	C=CC(=O)N1CCC(Nc2n[nH]c3nccc(-c4ccc(CNC(=O)c5ccc(C(C)(C)C)cc5)c(F)c4)c23)CC1 [Example 104, 4-tert-butyl-N-{[2-fluoro-4-(3-{[1-(prop-2-enoyl)piperidin-4-yl]amino}-1H-pyrazolo[3,4-b]pyridin-4-yl)phenyl]methyl}benzamide]
131 nM	577	89 nM	0.227 nM	< 10 nM	C=CC(=O)N1CC[C@@H](Nc2n[nH]c3nccc(-c4ccc(CNC(=O)c5nnc(C(C)(C)C)o5)c(F)c4)c23)C1 [Example 81, 5-tert-butyl-N-{[2-fluoro-4-(3-{[(3R)-1-(prop-2-enoyl)pyrrolidin-3-yl]amino}-1H-pyrazolo[3,4-b]pyridin-4-yl)phenyl]methyl}-1,3,4-oxadiazole-2-carboxamide]
542 nM	–	2020 nM	1.08 nM	–	COC(=O)N1C[C@H](Nc2n[nH]c3nccc(-c4ccc(CNC(=O)c5nc(C(C)(C)C)no5)c(F)c4)c23)CC[C@@H]1C [Example 410, methyl (2S,5R)-5-{[4-(4-{[(3-tert-butyl-1,2,4-oxadiazole-5-carbonyl)amino]methyl}-3-fluorophenyl)-1H-pyrazolo[3,4-b]pyridin-3-yl]amino}-2-methylpiperidine-1-carboxylate]
22.7 nM	–	28.3 nM	0.0678 nM	–	C=CC(=O)N(C)[C@@H]1CCN(c2n[nH]c3nccc(-c4ccc(CN(C)C(=O)c5nc(C(C)(C)C)no5)c(F)c4)c23)C1 [Example 338, 3-tert-butyl-N-{[2-fluoro-4-(3-{(3R)-3-[methyl(prop-2-enoyl)amino]pyrrolidin-1-yl}-1H-pyrazolo[3,4-b]pyridin-4-yl)phenyl]methyl}-N-methyl-1,2,4-oxadiazole-5-carboxamide]
1920 nM	–	4990 nM	1.87 nM	–	C[C@H]1CC[C@@H](Nc2n[nH]c3nccc(-c4ccc(CNC(=O)c5nc(C(C)(C)C)no5)c(F)c4)c23)CN1C(=O)C1(C)COC1 [Example 419, 3-tert-butyl-N-{[2-fluoro-4-(3-{[(3R,6S)-6-methyl-1-(3-methyloxetane-3-carbonyl)piperidin-3-yl]amino}-1H-pyrazolo[3,4-b]pyridin-4-yl)phenyl]methyl}-1,2,4-oxadiazole-5-carboxamide]
